Source: the supplement of paper PMC10307832

Assays:
Experiment in all cases: relative viability (nuclei count vs DMSO), 5 days (fraction); higher = more cells survive
Selisistat + Tozasertib = compound: C1CC(C2=C(C1)C3=C(N2)C=CC(=C3)Cl)C(=O)N [Selisistat] + Cc1cc(Nc2cc(N3CCN(C)CC3)nc(Sc3ccc(NC(=O)C4CC4)cc3)n2)n[nH]1 [Tozasertib] (partner 0.1 µM)
In short: (§1)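 Lung cancer cell lines were pin-tool dosed in 1536-well plates on the day after seeding, with either a lone drug or a fixed anchor-drug dose plus five library-drug doses (not always all listed) in √10 steps. Nuclei were counted on 4× images after 5 days. Relative viability is the ratio of treated-well to vehicle-well nuclei counts, with each value a median of duplicate plates.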

Serdemetan + Palbociclib = compound: c1ccc2c(CCNc3ccc(Nc4ccncc4)cc3)c[nH]c2c1 [Serdemetan] + CC(=O)c1c(C)c2cnc(Nc3ccc(N4CCNCC4)cn3)nc2n(C2CCCC2)c1=O [Palbociclib] (partner 0.5 µM)
In short: as §1

Serdemetan + Navitoclax = compound: c1ccc2c(CCNc3ccc(Nc4ccncc4)cc3)c[nH]c2c1 [Serdemetan] + CC1(C)CCC(c2ccc(Cl)cc2)=C(CN2CCN(c3ccc(C(=O)NS(=O)(=O)c4ccc(N[C@H](CCN5CCOCC5)CSc5ccccc5)c(S(=O)(=O)C(F)(F)F)c4)cc3)CC2)C1 [Navitoclax] (partner 0.5 µM)
In short: as §1

Serdemetan + Linsitinib = compound: c1ccc2c(CCNc3ccc(Nc4ccncc4)cc3)c[nH]c2c1 [Serdemetan] + C[C@]1(O)C[C@@H](c2nc(-c3ccc4ccc(-c5ccccc5)nc4c3)c3c(N)nccn32)C1 [Linsitinib] (partner 1 µM)
In short: as §1

Cell Line: NCI-H1395
- relative viability (Selisistat + Tozasertib; first compound 0.4 µM): 0.705
- relative viability (Selisistat + Tozasertib; first compound 1.265 µM): 0.698
- relative viability (Selisistat + Tozasertib; first compound 4 µM): 0.81
- relative viability (Selisistat + Tozasertib; first compound 12.65 µM): 0.8
- relative viability (Selisistat + Tozasertib; first compound 40 µM): 0.686
- relative viability (Serdemetan + Palbociclib; first compound 0.04 µM): 0.605
- relative viability (Serdemetan + Palbociclib; first compound 0.1265 µM): 0.643
- relative viability (Serdemetan + Palbociclib; first compound 0.4 µM): 0.626
- relative viability (Serdemetan + Palbociclib; first compound 1.265 µM): 0.555
- relative viability (Serdemetan + Palbociclib; first compound 4 µM): 0.436
- relative viability (Serdemetan + Navitoclax; first compound 0.04 µM): 0.976
- relative viability (Serdemetan + Navitoclax; first compound 0.1265 µM): 1.07
- relative viability (Serdemetan + Navitoclax; first compound 0.4 µM): 1.08
- relative viability (Serdemetan + Navitoclax; first compound 1.265 µM): 0.923
- relative viability (Serdemetan + Navitoclax; first compound 4 µM): 0.815
- relative viability (Serdemetan + Linsitinib; first compound 0.04 µM): 0.993
- relative viability (Serdemetan + Linsitinib; first compound 0.1265 µM): 1.17
- relative viability (Serdemetan + Linsitinib; first compound 0.4 µM): 1.09
- relative viability (Serdemetan + Linsitinib; first compound 1.265 µM): 0.874
- relative viability (Serdemetan + Linsitinib; first compound 4 µM): 0.638

Cell Line: 201T
- relative viability (Selisistat + Tozasertib; first compound 0.4 µM): 0.945
- relative viability (Selisistat + Tozasertib; first compound 1.265 µM): 0.95
- relative viability (Selisistat + Tozasertib; first compound 4 µM): 0.873
- relative viability (Selisistat + Tozasertib; first compound 12.65 µM): 0.919
- relative viability (Selisistat + Tozasertib; first compound 40 µM): 0.935
- relative viability (Serdemetan + Palbociclib; first compound 0.04 µM): 0.367
- relative viability (Serdemetan + Palbociclib; first compound 0.1265 µM): 0.353
- relative viability (Serdemetan + Palbociclib; first compound 0.4 µM): 0.341
- relative viability (Serdemetan + Palbociclib; first compound 1.265 µM): 0.33
- relative viability (Serdemetan + Palbociclib; first compound 4 µM): 0.327
- relative viability (Serdemetan + Navitoclax; first compound 0.04 µM): 1.18
- relative viability (Serdemetan + Navitoclax; first compound 0.1265 µM): 1.22
- relative viability (Serdemetan + Navitoclax; first compound 0.4 µM): 1.2
- relative viability (Serdemetan + Navitoclax; first compound 1.265 µM): 1.14
- relative viability (Serdemetan + Navitoclax; first compound 4 µM): 1.13
- relative viability (Serdemetan + Linsitinib; first compound 0.04 µM): 1.04
- relative viability (Serdemetan + Linsitinib; first compound 0.1265 µM): 1.03
- relative viability (Serdemetan + Linsitinib; first compound 0.4 µM): 1.01
- relative viability (Serdemetan + Linsitinib; first compound 1.265 µM): 1.02
- relative viability (Serdemetan + Linsitinib; first compound 4 µM): 0.781

Cell Line: NCI-H460
- relative viability (Selisistat + Tozasertib; first compound 0.4 µM): 0.515
- relative viability (Selisistat + Tozasertib; first compound 1.265 µM): 0.366
- relative viability (Selisistat + Tozasertib; first compound 4 µM): 0.289
- relative viability (Selisistat + Tozasertib; first compound 12.65 µM): 0.28
- relative viability (Selisistat + Tozasertib; first compound 40 µM): 0.441
- relative viability (Serdemetan + Palbociclib; first compound 0.04 µM): 0.166
- relative viability (Serdemetan + Palbociclib; first compound 0.1265 µM): 0.175
- relative viability (Serdemetan + Palbociclib; first compound 0.4 µM): 0.0992
- relative viability (Serdemetan + Palbociclib; first compound 1.265 µM): 0.0798
- relative viability (Serdemetan + Palbociclib; first compound 4 µM): 0.0544
- relative viability (Serdemetan + Navitoclax; first compound 0.04 µM): 1.03
- relative viability (Serdemetan + Navitoclax; first compound 0.1265 µM): 1.04
- relative viability (Serdemetan + Navitoclax; first compound 0.4 µM): 1.13
- relative viability (Serdemetan + Navitoclax; first compound 1.265 µM): 0.303
- relative viability (Serdemetan + Navitoclax; first compound 4 µM): 0.0983
- relative viability (Serdemetan + Linsitinib; first compound 0.04 µM): 0.747
- relative viability (Serdemetan + Linsitinib; first compound 0.1265 µM): 0.71
- relative viability (Serdemetan + Linsitinib; first compound 0.4 µM): 0.537
- relative viability (Serdemetan + Linsitinib; first compound 1.265 µM): 0.153
- relative viability (Serdemetan + Linsitinib; first compound 4 µM): 0.104

Cell Line: HCC-15
- relative viability (Selisistat + Tozasertib; first compound 0.4 µM): 0.407
- relative viability (Selisistat + Tozasertib; first compound 1.265 µM): 0.375
- relative viability (Selisistat + Tozasertib; first compound 12.65 µM): 0.311
- relative viability (Selisistat + Tozasertib; first compound 40 µM): 0.252
- relative viability (Serdemetan + Palbociclib; first compound 0.04 µM): 0.697
- relative viability (Serdemetan + Palbociclib; first compound 0.1265 µM): 0.757
- relative viability (Serdemetan + Palbociclib; first compound 0.4 µM): 0.668
- relative viability (Serdemetan + Palbociclib; first compound 1.265 µM): 0.56
- relative viability (Serdemetan + Palbociclib; first compound 4 µM): 0.556
- relative viability (Serdemetan + Navitoclax; first compound 0.04 µM): 0.755
- relative viability (Serdemetan + Navitoclax; first compound 0.1265 µM): 0.729
- relative viability (Serdemetan + Navitoclax; first compound 0.4 µM): 0.624
- relative viability (Serdemetan + Navitoclax; first compound 1.265 µM): 0.56
- relative viability (Serdemetan + Navitoclax; first compound 4 µM): 0.504
- relative viability (Serdemetan + Linsitinib; first compound 0.04 µM): 0.861
- relative viability (Serdemetan + Linsitinib; first compound 0.1265 µM): 0.893
- relative viability (Serdemetan + Linsitinib; first compound 0.4 µM): 0.797
- relative viability (Serdemetan + Linsitinib; first compound 1.265 µM): 0.647
- relative viability (Serdemetan + Linsitinib; first compound 4 µM): 0.62

Cell Line: NCI-H441
- relative viability (Selisistat + Tozasertib; first compound 0.4 µM): 0.688
- relative viability (Selisistat + Tozasertib; first compound 1.265 µM): 0.607
- relative viability (Selisistat + Tozasertib; first compound 4 µM): 0.65
- relative viability (Selisistat + Tozasertib; first compound 12.65 µM): 0.597
- relative viability (Selisistat + Tozasertib; first compound 40 µM): 0.59
- relative viability (Serdemetan + Palbociclib; first compound 0.04 µM): 0.206
- relative viability (Serdemetan + Palbociclib; first compound 0.1265 µM): 0.212
- relative viability (Serdemetan + Palbociclib; first compound 0.4 µM): 0.18
- relative viability (Serdemetan + Palbociclib; first compound 1.265 µM): 0.147
- relative viability (Serdemetan + Palbociclib; first compound 4 µM): 0.225
- relative viability (Serdemetan + Navitoclax; first compound 0.04 µM): 0.424
- relative viability (Serdemetan + Navitoclax; first compound 0.1265 µM): 0.654
- relative viability (Serdemetan + Navitoclax; first compound 0.4 µM): 0.87
- relative viability (Serdemetan + Navitoclax; first compound 1.265 µM): 0.87
- relative viability (Serdemetan + Navitoclax; first compound 4 µM): 0.317
- relative viability (Serdemetan + Linsitinib; first compound 0.04 µM): 0.454
- relative viability (Serdemetan + Linsitinib; first compound 0.1265 µM): 0.608
- relative viability (Serdemetan + Linsitinib; first compound 0.4 µM): 0.532
- relative viability (Serdemetan + Linsitinib; first compound 1.265 µM): 0.289
- relative viability (Serdemetan + Linsitinib; first compound 4 µM): 0.325

Cell Line: EPLC-272H
- relative viability (Selisistat + Tozasertib; first compound 0.4 µM): 0.265
- relative viability (Selisistat + Tozasertib; first compound 1.265 µM): 0.231
- relative viability (Selisistat + Tozasertib; first compound 12.65 µM): 0.34
- relative viability (Selisistat + Tozasertib; first compound 40 µM): 0.191
- relative viability (Serdemetan + Palbociclib; first compound 0.04 µM): 0.337
- relative viability (Serdemetan + Palbociclib; first compound 0.1265 µM): 0.329
- relative viability (Serdemetan + Palbociclib; first compound 0.4 µM): 0.33
- relative viability (Serdemetan + Palbociclib; first compound 1.265 µM): 0.256
- relative viability (Serdemetan + Palbociclib; first compound 4 µM): 0.3
- relative viability (Serdemetan + Navitoclax; first compound 0.04 µM): 1.11
- relative viability (Serdemetan + Navitoclax; first compound 0.1265 µM): 1.15
- relative viability (Serdemetan + Navitoclax; first compound 0.4 µM): 0.822
- relative viability (Serdemetan + Navitoclax; first compound 1.265 µM): 0.632
- relative viability (Serdemetan + Navitoclax; first compound 4 µM): 0.691
- relative viability (Serdemetan + Linsitinib; first compound 0.04 µM): 1.29
- relative viability (Serdemetan + Linsitinib; first compound 0.1265 µM): 1.18
- relative viability (Serdemetan + Linsitinib; first compound 0.4 µM): 1.07
- relative viability (Serdemetan + Linsitinib; first compound 1.265 µM): 1
- relative viability (Serdemetan + Linsitinib; first compound 4 µM): 0.703
